In patent publication US12221439B2, “Tetrahydropyridopyrimidine derivatives as AhR modulators” (JAGUAHR THERAPEUTICS PTE LTD, priority 2018, dated 2025):

Legend:
AhR = AhR (Homo sapiens (Human), UniProt P35869); experiment: AhR antagonism in U937 cells (Promega P450-Glo assay); type: cell-based; conditions: inhibition of agonist (KYNA) response, CYP1A1 activity readout (Luciferin-CEE), 24 hrs, arithmetic mean of pIC50
Procedure: Examples were tested in selected biological assays two or more times. Data are reported as the arithmetic mean of the pIC50 (−log10IC50) values, where IC50 is defined as the concentration of compound producing a 50% inhibition of the agonist (KYNA) response.
In Vitro Assay 1: AhR Antagonism in U937 Cells (Promega P450-Glo™ Assay)
AhR antagonism was assessed in U937 cells (myeloid lineage cell line derived from a human histiocytic lymphoma).). Ligand binds the AhR in the cytoplasm, and the AhR-ligand complex translocates to the nucleus and forms a heterodimer with AhR nuclear translocator (Arnt). This complex binds the xenobiotic response element (XRE) in the 5′ upstream region of the CYP1A1 promoter, enhancing CYP1A1 expression. CYP1A1 activity is subsequently determined by assessing the conversion of Luciferin-CEE to luciferin, which in turn reacts with luciferase to produce light. The amount of light produced is directly proportional to cytochrome P450 activity. U937 cells in Ultraculture serum free media (Lonza) were plated at 100,000 cells per well in a round bottom 96 well tissue culture plate. Seven concentrations of test compound (final [DMSO] 1%) were added and incubated for 10 minutes before the addition of […] KYNA. The plates were then placed in an incubator at 37° C., >85% humidity, 5% CO2 for 24 hrs. After aspiration of the supernatant the CYP1A1 substrate Luciferin-CEE ([Final] 83 μM) was added and incubated for 3 hrs before the reaction was stopped by adding luciferin detection reagent and luminescence was read after 20 minutes.

CYP1A1 = CYP1A1 (Homo sapiens (Human), UniProt P04798); experiment: CYP1A1 inhibition assay (Promega P450-Glo, Cypex bactosomes); type: biochemical; conditions: direct CYP1A1 inhibition, Luciferin-CEE 30 μM, NADPH, 37° C., arithmetic mean of pIC50
Procedure: In Vitro Assay 22: […] Inhibition Assay
The direct CYP1A1 inhibitory activity of test compounds was also assessed using the Promega P450-Glo™ assay system. Seven concentrations of test compound were added to a ½ area white 96 well plate. Cypex […]. bactosomes ([final] 0.5 pmol) and CYPA substrate Luciferin-CEE ([final] 30 μM) were prepared in 0.1M potassium phosphate buffer and incubated with test compounds at 37° C. for 5 minutes. 0.2m NADPH was then added to the plates and incubated at 37° C., for 10 minutes. The reaction was stopped by adding luciferin detection reagent and luminescence was read after 20 minutes.

Chain of AhR (P35869 11-848): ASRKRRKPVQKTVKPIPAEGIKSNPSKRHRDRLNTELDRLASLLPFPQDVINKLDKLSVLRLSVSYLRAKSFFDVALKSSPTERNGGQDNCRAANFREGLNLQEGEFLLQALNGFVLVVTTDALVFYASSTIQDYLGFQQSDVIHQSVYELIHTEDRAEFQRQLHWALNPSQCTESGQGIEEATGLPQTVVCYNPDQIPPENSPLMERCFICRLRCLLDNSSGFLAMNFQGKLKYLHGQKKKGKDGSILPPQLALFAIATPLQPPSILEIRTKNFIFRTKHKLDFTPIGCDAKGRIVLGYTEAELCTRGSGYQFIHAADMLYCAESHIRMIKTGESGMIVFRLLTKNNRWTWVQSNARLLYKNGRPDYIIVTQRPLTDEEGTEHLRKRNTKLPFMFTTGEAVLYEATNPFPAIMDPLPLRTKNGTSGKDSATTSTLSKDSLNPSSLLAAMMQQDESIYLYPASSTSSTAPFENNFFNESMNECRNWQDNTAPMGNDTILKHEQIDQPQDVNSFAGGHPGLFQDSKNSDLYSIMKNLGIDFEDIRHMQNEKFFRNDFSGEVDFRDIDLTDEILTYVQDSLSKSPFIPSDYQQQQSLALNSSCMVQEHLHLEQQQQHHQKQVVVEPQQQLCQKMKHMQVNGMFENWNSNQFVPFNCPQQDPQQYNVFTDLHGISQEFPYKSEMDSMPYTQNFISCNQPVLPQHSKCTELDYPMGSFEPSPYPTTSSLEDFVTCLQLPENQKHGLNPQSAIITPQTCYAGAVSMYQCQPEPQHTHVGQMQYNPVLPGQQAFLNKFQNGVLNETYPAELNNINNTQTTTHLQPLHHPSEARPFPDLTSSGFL
Chain of CYP1A1 (P04798 whole entry): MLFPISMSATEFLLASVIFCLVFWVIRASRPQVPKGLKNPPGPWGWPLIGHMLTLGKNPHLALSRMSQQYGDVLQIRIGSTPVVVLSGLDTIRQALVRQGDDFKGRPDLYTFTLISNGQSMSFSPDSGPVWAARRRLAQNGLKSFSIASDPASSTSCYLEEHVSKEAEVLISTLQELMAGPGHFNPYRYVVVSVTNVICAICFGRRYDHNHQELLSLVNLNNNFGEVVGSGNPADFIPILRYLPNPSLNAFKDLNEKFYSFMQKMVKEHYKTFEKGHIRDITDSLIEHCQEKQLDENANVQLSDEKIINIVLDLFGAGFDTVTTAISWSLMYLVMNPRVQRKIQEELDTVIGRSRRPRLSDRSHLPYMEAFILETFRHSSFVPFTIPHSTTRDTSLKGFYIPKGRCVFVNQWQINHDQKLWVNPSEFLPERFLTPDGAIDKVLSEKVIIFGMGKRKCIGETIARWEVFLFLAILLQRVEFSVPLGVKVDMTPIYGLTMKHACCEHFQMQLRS

Compound | IC50 (AhR) | cyp1A1 pIC50 (CYP1A1) | IC50 (CYP1A1)
Fc1cncc(-c2nc3c(c(NCCc4c[nH]c5ccccc45)n2)CCNC3)c1 [Example 8, N-(2-(1H-indol-3-yl)ethyl)-2-(5-fluoropyridin-3-yl)-5,6,7,8-tetrahydropyrido[3,4-d]pyrimidin-4-amine] | 15.8 nM | 7.00 | –
c1cncc(-c2nc3c(c(NCCc4c[nH]c5ccccc45)n2)CCNC3)c1 [Example 9, N-(2-(1H-indol-3-yl)ethyl)-2-(pyridin-3-yl)-5,6,7,8-tetrahydro pyrido[3,4-d]pyrimidin-4-amine] | 20 nM | 6.60 | –
c1cncc(-c2nc3c(c(NCCc4c[nH]c5ccccc45)n2)CNC3)c1 [Example 10, N-(2-(1H-indol-3-yl)ethyl)-2-(pyridin-3-yl)-6,7-dihydro-5H-pyrrolo[3,4-d]pyrimidin-4-amine] | 12.6 nM | 6.80 | –
Fc1cncc(-c2nc3c(c(NCCc4c[nH]c5ccccc45)n2)CCNCC3)c1 [Example 17a, N-(2-(1H-indol-3-yl)ethyl)-2-(5-fluoropyridin-3-yl)-6,7,8,9-tetrahydro-5H-pyrimido[4,5-d]azepin-4-amine] | 25.1 nM | 6.20 | –
CCN1CCc2nc(-c3cncc(F)c3)nc(NCCc3c[nH]c4ccccc34)c2CC1 [Example 17b, N-(2-(1H-indol-3-yl)ethyl)-7-ethyl-2-(5-fluoropyridin-3-yl)-6,7,8,9-tetrahydro-5H-pyrimido[4,5-d]azepin-4-amine] | 15.8 nM | 6.10 | –
CC1(C)NCCc2c(NCCc3c[nH]c4ccccc34)nc(-c3cncc(F)c3)nc21 [Example 18b, N-(2-(1H-indol-3-yl)ethyl)-2-(5-fluoropyridin-3-yl)-8,8-dimethyl-5,6,7,8-tetrahydropyrido[3,4-d]pyrimidin-4-amine] | 20 nM | 5.90 | –
Fc1cncc(-c2nc3c(c(NCCc4nc5ccccc5[nH]4)n2)CCNC3)c1 [Example 19, N-(2-(1H-benzo[d]imidazol-2-yl)ethyl)-2-(5-fluoropyridin-3-yl)-5,6,7,8-tetrahydropyrido[3,4-d]pyrimidin-4-amine] | 3160 nM | 5.10 | –
Cc1cncc(-c2nc3c(c(NCCc4c[nH]c5ccccc45)n2)CCNC3)c1 [Example 20, N-(2-(1H-indol-3-yl)ethyl)-2-(5-methylpyridin-3-yl)-5,6,7,8-tetrahydropyrido[3,4-d]pyrimidin-4-amine] | 25.1 nM | 6.40 | –
Fc1cncc(-c2nc3c(c(NCCc4c[nH]c5ccccc45)n2)CNCC3)c1 [Example 21, N-(2-(1H-indol-3-yl)ethyl)-2-(5-fluoropyridin-3-yl)-5,6,7,8-tetrahydropyrido[4,3-d]pyrimidin-4-amine] | 20 nM | 6.40 | –
Clc1cncc(-c2nc3c(c(NCCc4c[nH]c5ccccc45)n2)CCNC3)c1 [Example 22, N-(2-(1H-indol-3-yl)ethyl)-2-(5-chloropyridin-3-yl)-5,6,7,8-tetrahydropyrido[3,4-d]pyrimidin-4-amine] | 10 nM | – | 316 nM
N#Cc1cncc(-c2nc3c(c(NCCc4c[nH]c5ccccc45)n2)CCNC3)c1 [Example 23, 5-(4-((2-(1H-indol-3-yl)ethyl)amino)-5,6,7,8-tetrahydropyrido[3,4-d]pyrimidin-2-yl)nicotinonitrile] | 10 nM | 6.70 | –
Fc1cncc(-c2nc3c(c(NCCc4c[nH]c5ccccc45)n2)CNC3)c1 [Example 24, N-(2-(1H-indol-3-yl)ethyl)-2-(5-fluoropyridin-3-yl)-6,7-dihydro-5H-pyrrolo[3,4-d]pyrimidin-4-amine] | 12.6 nM | 6.60 | –

Continued by falling IC50 (AhR), values first:

IC50 (AhR) | cyp1A1 pIC50 (CYP1A1) | IC50 (CYP1A1) | Compound
10 nM | 6.40 | – | CC(C)N1CCc2c(nc(-c3cncc(F)c3)nc2NCCc2c[nH]c3ccccc23)C1 [Example 5, N-(2-(1H-indol-3-yl)ethyl)-2-(5-fluoropyridin-3-yl)-7-isopropyl-5,6,7,8-tetrahydropyrido[3,4-d]pyrimidin-4-amine]
10 nM | 6.70 | – | c1cncc(-c2nc3c(c(NCCc4c[nH]c5ccccc45)n2)CNCC3)c1 [Example 7, N-(2-(1H-indol-3-yl)ethyl)-2-(pyridin-3-yl)-5,6,7,8-tetrahydropyrido [4,3-d]pyrimidin-4-amine]
6.31 nM | – | 794 nM | N#CCN1CCc2c(nc(-c3cncc(F)c3)nc2NCCc2c[nH]c3ccccc23)C1 [Example 4, 2-(4-((2-(1H-indol-3-yl)ethyl)amino)-2-(5-fluoropyridin-3-yl)-5,8-dihydropyrido[3,4-d]pyrimidin-7(6H)-yl)acetonitrile]
6.31 nM | – | 100 nM | NCC(=O)N1CCc2c(nc(-c3cncc(F)c3)nc2NCCc2c[nH]c3ccccc23)C1 [Example 16, 1-(4-((2-(1H-indol-3-yl)ethyl)amino)-2-(5-fluoropyridin-3-yl)-5,8-dihydropyrido[3,4-d]pyrimidin-7(6H)-yl)-2-aminoethan-1-one]
5.01 nM | 6.50 | – | CN1CCc2c(nc(-c3cncc(F)c3)nc2NCCc2c[nH]c3ccccc23)C1 [Example 6, N-(2-(1H-indol-3-yl)ethyl)-2-(5-fluoropyridin-3-yl)-7-methyl-5,6,7,8-tetrahydropyrido[3,4-d]pyrimidin-4-amine]
5.01 nM | 6.20 | – | CC1(C)c2nc(-c3cncc(F)c3)nc(NCCc3c[nH]c4ccccc34)c2CCN1Cc1ccccc1 [Example 18a, N-(2-(1H-indol-3-yl)ethyl)-7-benzyl-2-(5-fluoropyridin-3-yl)-8,8-dimethyl-5,6,7,8-tetrahydropyrido[3,4-d]pyrimidin-4-amine]
5.01 nM | 6.20 | – | CS(=O)(=O)N1Cc2nc(-c3cncc(F)c3)nc(NCCc3c[nH]c4ccccc34)c2C1 [Example 25, N-(2-(1H-indol-3-yl)ethyl)-2-(5-fluoropyridin-3-yl)-6-(methylsulfonyl)-6,7-dihydro-5H-pyrrolo[3,4-d]pyrimidin-4-amine]
3.16 nM | 6.40 | – | Fc1cncc(-c2nc3c(c(OCCc4c[nH]c5ccccc45)n2)CCNC3)c1 [Example 11, 4-(2-(1H-indol-3-yl)ethoxy)-2-(5-fluoropyridin-3-yl)-5,6,7,8-tetrahydropyrido[3,4-d]pyrimidine]
3.16 nM | 5.70 | – | CN(C)C(=O)N1CCc2c(nc(-c3cncc(F)c3)nc2NCCc2c[nH]c3ccccc23)C1 [Example 13, 4-((2-(1H-indol-3-yl)ethyl)amino)-2-(5-fluoropyridin-3-yl)-N,N-dimethyl-5,8-dihydropyrido[3,4-d]pyrimidine-7(6H)-carboxamide]
2 nM | 6.00 | – | Cn1nccc1C(=O)N1CCc2c(nc(-c3cncc(F)c3)nc2NCCc2c[nH]c3ccccc23)C1 [Example 15, (4-((2-(1H-indol-3-yl)ethyl)amino)-2-(5-fluoropyridin-3-yl)-5,8-dihydropyrido[3,4-d]pyrimidin-7(6H)-yl)(1-methyl-1H-pyrazol-5-yl)methanone]
1.58 nM | 6.00 | – | CC(=O)N1CCc2c(nc(-c3cncc(F)c3)nc2NCCc2c[nH]c3ccccc23)C1 [Example 1, 1-(4-((2-(1H-indol-3-yl)ethyl)amino)-2-(5-fluoropyridin-3-yl)-5,8-dihydropyrido [3,4-d]pyrimidin-7(6H)-yl)ethan-1-one]
1.26 nM | 6.20 | – | CS(=O)(=O)N1CCc2c(nc(-c3cncc(F)c3)nc2NCCc2c[nH]c3ccccc23)C1 [Example 2, N-(2-(1H-indol-3-yl)ethyl)-2-(5-fluoropyridin-3-yl)-7-(methylsulfonyl)-5,6,7,8-tetrahydropyrido [3,4-d]pyrimidin-4-amine]
1.26 nM | 6.10 | – | CNC(=O)N1CCc2c(nc(-c3cncc(F)c3)nc2NCCc2c[nH]c3ccccc23)C1 [Example 14, 4-((2-(1H-indol-3-yl)ethyl)amino)-2-(5-fluoropyridin-3-yl)-N-methyl-5,8-dihydropyrido[3,4-d]pyrimidine-7(6H)-carboxamide]
1 nM | 6.10 | – | CN(C)S(=O)(=O)N1CCc2c(nc(-c3cncc(F)c3)nc2NCCc2c[nH]c3ccccc23)C1 [Example 12, 4-((2-(1H-indol-3-yl)ethyl)amino)-2-(5-fluoropyridin-3-yl)-N,N-dimethyl-5,8-dihydropyrido[3,4-d]pyrimidine-7(6H)-sulfonamide]
